“Also recorded” adds a separate entry of the source. Like-named read-outs stand apart in the source and are kept apart here. Starred links: 1 amine or outer side, 2 acyl side, 3 side chain; linkers in the order of their positions; H or OH if unused. Positions of bridges follow the written chain, without caps; N, C: chain ends. Non-standard residues stand in square brackets, D forms with d. Residues, ends and D or L forms follow the SMILES beside them. No end group written: not given here. ξ: configuration not given here. dPhe(4-CF3) = N[C@H](Cc1ccc(C(F)(F)F)cc1)C(=O)O; dTrp(6-F) = N[C@H](Cc1c[nH]c2cc(F)ccc12)C(=O)O; ξPhe(4-CF3) = NC(Cc1ccc(C(F)(F)F)cc1)C(=O)O; X1 = C[C@](CCCCC=[*:3])(N[*:1])C(=O)[*:2]; R8 = C=CCCCCCC[C@@](C)(N)C(=O)O; S8 = C=CCCCCCC[C@](C)(N)C(=O)O; R5 = C=CCCC[C@@](C)(N)C(=O)O; S5 = C=CCCC[C@](C)(N)C(=O)O
T1: MDM4 (Homo sapiens, UniProt O15151)
T1 construct: GST; made in house
T1 sequence (O15151 1-490): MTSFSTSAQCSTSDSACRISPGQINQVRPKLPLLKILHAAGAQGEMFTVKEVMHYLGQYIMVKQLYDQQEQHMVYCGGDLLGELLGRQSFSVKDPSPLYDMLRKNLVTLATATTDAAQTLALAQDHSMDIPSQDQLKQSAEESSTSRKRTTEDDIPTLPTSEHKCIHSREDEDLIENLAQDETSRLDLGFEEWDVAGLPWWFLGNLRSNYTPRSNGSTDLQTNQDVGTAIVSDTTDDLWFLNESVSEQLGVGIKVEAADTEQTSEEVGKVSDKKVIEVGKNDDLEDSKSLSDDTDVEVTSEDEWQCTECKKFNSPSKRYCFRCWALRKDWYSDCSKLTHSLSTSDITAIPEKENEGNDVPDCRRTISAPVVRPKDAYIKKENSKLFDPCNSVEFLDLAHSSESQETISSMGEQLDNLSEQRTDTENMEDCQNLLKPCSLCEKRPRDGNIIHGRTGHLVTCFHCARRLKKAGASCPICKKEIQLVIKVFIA


Tests used:
[1] = Circular dichroism (CD) helicity of peptide in solution; format: physicochemical; settings: 25° C.
Procedure: Prior to the experiment, 5 μl of the 10 mM stock peptide was mixed with 45 μl of 100% methanol, and dried for 2 hours in the SpeedVac concentrator (Thermo Scientific). The dried peptide was reconstituted in buffer, containing 1 mM HEPES pH 7.4 and 5% methanol, to a concentration of 1 mM. The peptide sample was placed in a quartz cuvette with a path length of 0.2 cm and the CD spectrum was recorded from 300 to 190 nm at 25° C., using the Chirascan-plus qCD machine (Applied Photophysics). […] An estimate of the secondary stmcture components of the peptide was carried out by converting the CD spectrum to mean residue ellipticity, before deconvoluting using the CDNN software (distributed by Applied Photophysics). All experiments were done in duplicates.

[2] = target: T1, MDM4; assay: Fluorescence polarization (FP) binding to MDM4/MDMX; settings: for Kd: FP assay, MDM4 (MDMX)
[3] = target: T2, MDM2 (Homo sapiens, UniProt Q00987); assay: Surface plasmon resonance (SPR) binding to MDM2; settings: for Kd: MDM2
T2 construct: GST (N); His6 (N); made in house; host or cells: E. coli BL21 (DE3) Rosetta T1R

[4] = tested on: HCT116 p53 reporter cells; assay: p53 beta-lactamase reporter gene assay; format: cell-based; settings: for EC50: read-out: P53 activity EC50 (μM) (2% FBS) 16 H, HCT116 p53 reporter, 2% FBS, 16 H; for p53 activation in reporter cells: 16 hours, up to 50 μM
Procedure: The cells were incubated overnight and followed by removal of cell growth media and replaced with Opti-MEM either containing 0% FBS or 10% FBS. […] Measurements were done using Envision multiplate reader (Perkin-Elmer).

[5] = tested on: HCT116 cells; assay: Lactate dehydrogenase (LDH) release assay; format: cell-based; settings: up to 50 μM
Procedure: The cells were incubated overnight followed by removal of cell media and addition of Opti-MEM Medium without FBS. Cells were then treated with peptides for 4/16 hours in Opti-MEM either in 10% FBS or serum free. Final concentration of DMSO was 0.5%. […] Measurements were carried out using Tecan plate reader.

[6] = tested on: Jump-In™ T-REx™ CHO-K1 BLA cells; assay: Tetracycline beta-lactamase reporter gene assay (counterscreen); format: cell-based; settings: for EC50: read-out: Counterscreen EC50 (μM) (2% FBS) 16 H, 2% FBS, 16 H
Procedure: Cells were seeded into a 384-well plate a density of 4000 cells per well. […] Measurements were carried out using Envision multiplate reader (Perkin-Elmer).

[7] = target: T2, MDM2; assay: MDM2 binding assay, fluorescence polarization (FP) competition; settings: for Kd: apparent Kd, competition with FAM-labeled 12/1 peptide
[8] = target: T3, human MDM2 protein (amino acids 1-125) (Homo sapiens, UniProt Q00987); assay: Isothermal titration calorimetry (ITC) with MDM2; format: binding; design: purified recombinant human MDM2 protein (amino acids 1-125); GST (N); His6 (N); TEV cleavage site ENLYFQG (N); made in house; host or cells: E. coli BL21 (DE3) Rosetta T1R; settings: for ITC TΔS / ITC ΔG: binding to MDM2; for ITC ΔH: enthalpy of binding to MDM2
Target sequence in this assay (Q00987 1-125): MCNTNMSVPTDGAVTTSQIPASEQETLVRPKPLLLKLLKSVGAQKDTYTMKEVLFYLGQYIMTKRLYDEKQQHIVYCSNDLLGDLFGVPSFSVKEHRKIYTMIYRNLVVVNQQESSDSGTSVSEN
Procedure: All experiments were performed in duplicates using the MicroCal PEAQ-ITC Automated system. […] For peptides that are insoluble at high concentrations, reverse ITC was carded out by titrating 200 μM of MDM2 protein into 20 μM of peptide. […] Data analysis was carried out using the MicroCal PEAQ-ITC Analysis Software.

[9] = target: T3, human MDM2 protein (amino acids 1-125); assay: cell-based or functional assay
Target sequence in this assay (Q00987 1-125 limits assumed): as the sequence (Q00987 1-125) above

[10] = target: T3, human MDM2 protein (amino acids 1-125); assay: fluorescence polarization competition, MDM2
Target sequence in this assay (Q00987 1-125 limits assumed): as the sequence (Q00987 1-125) above

[11] = target: T3, human MDM2 protein (amino acids 1-125); assay: SPR, biotinylated MDM2 on streptavidin, peptide as analyte
Target sequence in this assay (Q00987 1-125 limits assumed): as the sequence (Q00987 1-125) above

[12] = target: T3, human MDM2 protein (amino acids 1-125); assay: fluorescence polarization competition, FAM-12/1 tracer, MDM2
Target sequence in this assay (Q00987 1-125 limits assumed): as the sequence (Q00987 1-125) above

[13] = target: T3, human MDM2 protein (amino acids 1-125); assay: fluorescence anisotropy competition: unlabeled peptide titrated against the complex of MDM2 (250 nM) and FAM-labeled 12/1 peptide (50 nM)
Target sequence in this assay (Q00987 1-125 limits assumed): as the sequence (Q00987 1-125) above

[14] = target: MDM4 protein (human) (UniProt O15151); assay: fluorescence polarization assay on MDM4 (anisotropy falls with the peptide concentration; the labeled tracer used with MDM4 is not given)

| Molecule | CD (% helicity) [1] [%] | Kd ([3]; Table 1) [µM] | EC50 [6] [µM] | binding to MDM2 in FP assay [7] | binding to MDMX in FP assay [2] | p53 activation in reporter cells [4] | P53 activity EC50 (µM) (2% FBS) 16 H [9] | Kd [11] [µM] | also measured |
| --- | --- | --- | --- | --- | --- | --- | --- | --- | --- |
| CC(C)C[C@H]1NC(=O)[C@@H](CC(C)C)NC(=O)[C@@](C)(NC(=O)[C@@H](CCC(=O)O)NC(=O)[C@@H](Cc2ccc(C(F)(F)F)cc2)NC(=O)[C@@H](CC(N)=O)NC(=O)[C@@]2(C)CCC/C=C\CCC[C@@](C)(N)C(=O)N[C@H](C)C(=O)N[C@H](Cc3c[nH]c4cc(F)ccc34)C(=O)N[C@H](Cc3ccc(O)cc3)C(=O)N2)CCC/C=C\CCC[C@](C)(C(N)=O)NC1=O [^DPMI-δ (1-5,9-12)] (H-[R5][dA][dTrp(6-F)][dY][R5][dN][dPhe(4-CF3)][dE][S5][dL][dL][R5]-NH2; staple (Z) 1-5, 9-12) | 20 | < 0.001 | ≥ 50 |  |  |  |  |  | Kd [2]: 2.1 nM; Kd ([3]; Table 2): < 0.001 µM; EC50 [4]: 34.6 µM; LDH leakage [5]: No detectable LDH leakage; counterscreen activity [6]: negligible counter screen activity |
| CC(C)C[C@@H](NC(=O)[C@@H](CC(C)C)NC(=O)[C@@H](CCCCN)NC(=O)[C@@H](CCC(=O)O)NC(=O)[C@@H](Cc1ccc(C(F)(F)F)cc1)NC(=O)[C@@H](CC(N)=O)NC(=O)[C@@]1(C)CCCCCC/C=C\CCC[C@@](C)(N)C(=O)N[C@H](C)C(=O)N[C@H](Cc2c[nH]c3cc(F)ccc23)C(=O)N[C@H](Cc2ccc(O)cc2)C(=O)N1)C(=O)N[C@H](CCCNC(=N)N)C(N)=O [^DPMI-δ (1-5)] | 24.7 | < 0.001 | ≥ 50 |  |  |  |  |  | Kd [7]: 13.2 nM; Kd [2]: 4.5 nM; Kd ([3]; Table 2): < 0.001 µM; EC50 [4]: 13.7 µM; EC50 ([4]; listed as DPMI-δ(1-5)): 17.5 µM; counterscreen activity [6]: didn't exhibit activity; ITC TΔS [8]: 12.7 kJ/mol; ITC ΔG [8]: -48.5 kJ/mol; ITC ΔH [8]: -66.1 kJ/mol |
| CC(C)C[C@@H](NC(=O)[C@@H](CC(C)C)NC(=O)[C@@]1(C)CCCC/C=C\CCC[C@@](C)(NC(=O)[C@@H](Cc2ccc(O)cc2)NC(=O)[C@@H](Cc2c[nH]c3cc(F)ccc23)NC(=O)[C@@H](C)NC(=O)[C@H](N)[C@H](C)O)C(=O)N[C@H](CC(N)=O)C(=O)N[C@H](Cc2ccc(C(F)(F)F)cc2)C(=O)N[C@H](CCC(=O)O)C(=O)N1)C(=O)N[C@H](CCCNC(=N)N)C(N)=O [^DPMI-δ (5-9)] (H-[dT][dA][dTrp(6-F)][dY][R5][dN][dPhe(4-CF3)][dE][X1][dL][dL][dR]-NH2; staple (Z) 5-9) | 38.0 | 0.029 | 47 | no binding | no binding | unable to activate cellular p53 |  |  | LDH leakage [5]: did not cause LDH leakage |
| CC(C)C[C@@H](NC(=O)[C@@H](CC(C)C)NC(=O)[C@@H](CCCCN)NC(=O)[C@@H](CCC(=O)O)NC(=O)[C@@H](Cc1ccc(C(F)(F)F)cc1)NC(=O)[C@@]1(C)CCC/C=C\CCC[C@@](C)(NC(=O)[C@H](N)[C@H](C)O)C(=O)N[C@H](Cc2c[nH]c3cc(F)ccc23)C(=O)N[C@H](Cc2ccc(O)cc2)C(=O)N[C@H](C)C(=O)N1)C(=O)N[C@H](CCCNC(=N)N)C(N)=O [^DPMI-δ (2-6)] (H-[dT][R5][dTrp(6-F)][dY][dA][R5][dPhe(4-CF3)][dE][dK][dL][dL][dR]-NH2; staple (Z) 2-6) | 46.7 | > 0.5 | 13.9 | no binding | no binding | unable to activate cellular p53 |  |  | binding to MDM2 in SPR [3]: non-binder; Kd ([3]; Table 2): > 0.5 µM |
| CC(C)C[C@@H](NC(=O)[C@@H](CC(C)C)NC(=O)[C@@H](CCCCN)NC(=O)[C@@H](CCC(=O)O)NC(=O)[C@@H](Cc1ccc(C(F)(F)F)cc1)NC(=O)[C@@H](CC(N)=O)NC(=O)[C@@H](C)NC(=O)[C@@H](Cc1ccc(O)cc1)NC(=O)[C@@H](Cc1c[nH]c2cc(F)ccc12)NC(=O)[C@@H](C)NC(=O)[C@H](N)[C@H](C)O)C(=O)N[C@H](CCCNC(=N)N)C(N)=O [^DPMI-δ, reference compound] |  |  |  |  |  | no p53 activation |  |  |  |
| CC(C)C[C@@H](NC(=O)[C@@H](CC(C)C)NC(=O)[C@@]1(C)CCC/C=C\CCCCCC[C@](C)(NC(=O)[C@H](N)[C@H](C)O)C(=O)N[C@H](Cc2c[nH]c3cc(F)ccc23)C(=O)N[C@H](Cc2ccc(O)cc2)C(=O)N[C@H](C)C(=O)N[C@H](CC(N)=O)C(=O)NC(Cc2ccc(C(F)(F)F)cc2)C(=O)N[C@H](CCC(=O)O)C(=O)N1)C(=O)N[C@H](CCCNC(=N)N)C(N)=O (stereo partly drawn) [^DPMI-(2-9)] (H-[dT][S8][dTrp(6-F)][dY][dA][dN][ξPhe(4-CF3)][dE][R5][dL][dL][dR]-NH2; staple (Z) 2-9) | 26.5 | 0.0074 | ≥ 50 | no binding | no binding | unable to activate cellular p53 |  |  | Kd [7]: 3350 nM; LDH leakage [5]: did not cause LDH leakage |
| CC(C)C[C@@H](NC(=O)[C@@]1(C)CCC/C=C\CCC[C@@](C)(NC(=O)[C@@H](C)NC(=O)[C@@H](Cc2ccc(O)cc2)NC(=O)[C@@H](Cc2c[nH]c3cc(F)ccc23)NC(=O)[C@@H](C)NC(=O)[C@H](N)[C@H](C)O)C(=O)N[C@H](Cc2ccc(C(F)(F)F)cc2)C(=O)N[C@H](CCC(=O)O)C(=O)N[C@H](CCCCN)C(=O)N1)C(=O)N[C@H](CCCNC(=N)N)C(N)=O [^DPMI-δ (6-10)] | 39.9 | 0.059 |  | no binding; also recorded: non-binder | no binding |  |  |  | ITC TΔS [8]: -7.78 kJ/mol; ITC ΔG [8]: -46.9 kJ/mol; ITC ΔH [8]: -39.1 kJ/mol |
| XAXYXNXEKLLX (all alpha-amino acids have a D configuration; Xaa1 is R5 ((R)-2-(4'-pentenyl)-alanine), Xaa5 is B5 (2,2-(4'-pentenyl)-glycine), Xaa12 is R8 ((R)-2-(7'-octenyl)-alanine), joined by a hydrocarbon stitch 1-5 and 5-12 with residue 5 in common; Xaa3 is 6-F-Trp; Xaa7 is p-CF3-Phe; Xaa12 optionally has a C-terminal amide; Xaa1 optionally has a N-terminal acyl) [^DPMI-δ(1,5,12)] |  |  |  |  |  |  | 4 | < 0.001 | fold increase in affinity as compared to ^DPMI-δ(1-5) and ^DPMI-δ(5-12) [10]: 10 to 100 fold; Kd [12]: 0.00425 µM; IC50 (read off the curve) [13]: 0.2 µM; IC50 (read off the curve) [14]: 1 µM |
| [R5][dA][dTrp(6-F)][dY][R5][dN][dPhe(4-CF3)][dE][S5][dL][dL][R8]-NH2 (staple 1-5, 9-12) [^DPMI-δ(1-5,9-12)] |  |  |  |  |  |  | 34.6 | < 0.001 | fold increase in affinity as compared to ^DPMI-δ(1-5) and ^DPMI-δ(5-12) [10]: 10 to 100 fold; Kd [12]: 0.0007 µM; IC50 (read off the curve) [13]: 0.2 µM; IC50 (read off the curve) [14]: 2 µM |
| XAXYXNXEKLLR (all alpha-amino acids have a D configuration; Xaa1 is R5 and Xaa5 is R5 ((R)-2-(4'-pentenyl)-alanine), joined by a hydrocarbon staple; Xaa3 is 6-F-Trp; Xaa7 is p-CF3-Phe; Xaa12 optionally has a C-terminal amide; Xaa1 optionally has a N-terminal acyl) [^DPMI-δ(1-5)] |  |  |  |  |  |  | 13.7 | < 0.001 | cellular activation of p53, EC50 (HCT116 p53 reporter cells) [9]: 17.5 µM; IC50 (read off the curve) [13]: 0.5 µM; IC50 (read off the curve) [14]: 0.6 µM |
| [dT][R5][dTrp(6-F)][dY][dA][R5][dPhe(4-CF3)][dE][dK][dL][dL][dR]-NH2 (staple 2-6) [^DPMI-δ(2-6)] |  |  |  |  |  |  | > 50 | > 0.5 | Kd [12]: > 10 µM |
| [dT][S8][dTrp(6-F)][dY][dA][dN][dPhe(4-CF3)][dE][R5][dL][dL][dR]-NH2 (staple 2-9) [^DPMI-δ(2-9)] |  |  |  |  |  |  | > 50 |  |  |

From patent publication US20220267376A1, “P53 ACTIVATOR PEPTIDOMIMETIC MACROCYCLES” (Merck Sharp & Dohme Corp., priority 2019, published 2022)
